Measured values reported in patent US4737504A, “5-fluoro-and 8-fluoro-trimetoquinol compounds and the processes for their preparation” (priority 1986, dated 1988).
Where two headings read alike, the source gives them in different places.

Molecular target: T1, U46619-induced contractions of rat thoracic aorta (Rattus norvegicus, UniProt P34978)
T1 construct: A 2-3 cm segment of thoracic aorta was excised; tissue Harlan Industries, Inc., Cumberland, IN (animals); host or cells: rat thoracic aorta, spirally cut strips
T1 sequence (P34978 1-341): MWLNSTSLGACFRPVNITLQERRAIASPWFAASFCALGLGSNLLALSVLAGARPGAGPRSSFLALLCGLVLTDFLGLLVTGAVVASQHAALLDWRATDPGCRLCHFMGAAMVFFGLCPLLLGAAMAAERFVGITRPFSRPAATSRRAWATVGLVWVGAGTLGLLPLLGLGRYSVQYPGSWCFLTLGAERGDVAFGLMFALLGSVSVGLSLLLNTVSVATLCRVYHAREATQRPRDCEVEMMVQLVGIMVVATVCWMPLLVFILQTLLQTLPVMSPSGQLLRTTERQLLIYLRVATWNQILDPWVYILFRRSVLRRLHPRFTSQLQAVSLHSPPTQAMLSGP
Experiment: antagonism of U46619-induced contractions of rat thoracic aorta
Assay type: cell-based, rat (male Sprague-Dawley)
Conditions: for Kb: against U46619, read-out: pKB ± SEM (converted); for ΔpD2 of U46619: pD2 (control) - pD2 (treatment); for inhibitory potency on U46619-induced contractions greater than trimetoquinol: relative to trimetoquinol 1
Description: The vasoconstrictive activity of U46619 (a stable thromboxane A2 agonist) on thoracic aorta tissue was determined as follows: Male Sprague-Dawley rats (Harlan Industries, Inc., Cumberland, IN) weighing between 250 and 350 gm were stunned and killed by cervical dislocation. A 2-3 cm segment of thoracic aorta was excised, cleaned of any adhering fat and connecting tissue, spirally cut into 2 matched strips, Constantine, supra. (2.0×0.3 cm). Strips were mounted in 10 ml tissue baths filled with the physiological salt solution in which 3×10^-6 M indomethaecin was present. A tension of 1 gm was applied to the strips. Responses of the tissues to drugs were monitored via Grass FT-03 isometric force transducers connected to a Grass Model 7C polygraph (Grass Instruments Co., Quincy, MA).
Some experiments were done in the absence of indomethacin. Concentration-dependent responses to U46619 were constructed in each preparation as described by Van Rossum, supra.
Effective concentration-50 (EC50) values of the agonists were determined graphically from individual plots of percent response versus log concentration. The potency of each agonist was expressed as a pD2 value where pD2 is equal to the negative logarithm of the experimentally determined EC50 value.
Antagonists were quantitated by calculating their pKB or pA2 values according to the methods of Furchgott, Ann. N.Y. Acad. Sci., 139: 553-570 (1967) and Arunlakshana et al., Br. J. Pharmacol., 14: 48-58 (1959). The pKB value is equivalent to the -log of [I]/(CR-1), where pKB is the negative logarithm of the apparent dissociation constant of the antagonist (KB), [I] is the concentration of the antagonist, and CR is the concentration ratio of the agonist EC50 in the presence of antagonist to the agonist EC50 in the absence of antagonist. To determine significant differences between pD2, pKB or pA2 values, a 5% level of significance was used. Arunlakshana plots were analyzed by computer according to the method of Tallarida et al., Manual of Pharmacological Calculations With Computer Programs, 29-31, (1981).

Molecule `COc1cc(CC2NCCc3cc(O)c(O)c(F)c32)cc(OC)c1OC` (centres unmarked) [Compound 8-F-TMQ, 8-fluoro-trimetoquinol] has a Kb (analog 1 × 10^-5 M) of 251 nM, a Kb (analog 3 × 10^-5 M) of 372 nM and a Kb (analog 3 × 10^-6 M) of 380 nM. For the same molecule, the “pD2 of U46619 in presence of analog” value (analog 1 × 10^-5 M) was 6.81 ± 0.12, the “pD2 of U46619 in presence of analog” value (analog 3 × 10^-5 M) was 6.25 ± 0.14 and the “pD2 of U46619 in presence of analog” value (analog 3 × 10^-6 M) was 7.20 ± 0.12. For the same molecule, the “ΔpD2 of U46619” value (analog 1 × 10^-5 M) was 1.36 ± 0.12, the “ΔpD2 of U46619” value (analog 3 × 10^-5 M) was 1.92 ± 0.14 and the “ΔpD2 of U46619” value (analog 3 × 10^-6 M) was 0.96 ± 0.19. The “inhibitory potency on U46619-induced contractions greater than trimetoquinol” value was about 10 fold.
Molecule `COc1cc(CC2NCCc3c2cc(O)c(O)c3F)cc(OC)c1OC` (centres unmarked) [Compound 5-F-TMQ, 5-fluoro-trimetoquinol] has a Kb (analog 1 × 10^-4 M) of 1740 nM, a Kb (analog 3 × 10^-5 M) of 3160 nM and a Kb (analog 3 × 10^-6 M) of 1510 nM. For the same molecule, the “pD2 of U46619 in presence of analog” value (analog 1 × 10^-4 M) was 6.40 ± 0.16, the “pD2 of U46619 in presence of analog” value (analog 3 × 10^-5 M) was 7.14 ± 0.08 and the “pD2 of U46619 in presence of analog” value (analog 3 × 10^-6 M) was 7.69 ± 0.08. The “ΔpD2 of U46619” value (analog 1 × 10^-4 M) was 1.77 ± 0.16, the “ΔpD2 of U46619” value (analog 3 × 10^-5 M) was 1.02 ± 0.08 and the “ΔpD2 of U46619” value (analog 3 × 10^-6 M) was 0.48 ± 0.07. The “inhibitory potency on U46619-induced contractions greater than trimetoquinol” value was “about 2 fold”.
